Source: PMC8933379, “Evaluation of the absolute oral bioavailability of the anaplastic lymphoma kinase/c-ROS oncogene 1 kinase inhibitor lorlatinib in healthy participants” (Cancer Chemotherapy and Pharmacology, 2021)
Converted amounts (≈) assume the structure as drawn. “Also recorded” adds a separate entry of the source. Like-named read-outs stand apart in the source and are kept apart here.

Experiments:
[1] = Solubility in aqueous media; format: physicochemical
[2] = Safety evaluation (adverse events) in the crossover study
Description: Safety assessments were performed at screening, during the study, and at study completion, clinic discharge, or early termination. Safety assessments included physical examinations, 12‐lead ECGs, vital signs, and clinical laboratory evaluations. All adverse events (AEs) and concomitant treatments were monitored and recorded throughout the study. AEs were reported using NCI CTCAE terminology.

[3] = cited from earlier work; for Mean half-life: previous drug interaction studies
[4] = design: method as in earlier work; conditions: cited from earlier work
[5] = design: method as in PMID 24819116; conditions: in vitro; cited from earlier work
[6] = tested on: human blood; conditions: planned IV dose formulation, human blood in vitro; earlier toxicology studies, no reference given; cited from earlier work
[7] = rats; animal studies, no reference given; cited from earlier work
[8] = design: method as in PMID 32441835; conditions: cited from earlier work; for Total drug-related radioactivity (parent plus metabolites) recovered in urine: depends on radioactivity placement on the molecule
[9] = design: method as in PMID 33937953; conditions: co-administered with modafinil; cited from earlier work
[10] = used to estimate hepatic blood clearance; no reference given; cited from earlier work
[11] = planned IV dose formulation, rabbits; earlier toxicology studies, no reference given; cited from earlier work
[12] = dogs; animal studies, no reference given; cited from earlier work
[13] = cited from earlier work; for Mean half-life: previous drug interaction studies; remark: listed apart in the source
[14] = 100 mg single oral dose of [14C]lorlatinib, healthy participants

## C[C@H]1Oc2cc(cnc2N)-c2c(nn(C)c2C#N)CN(C)C(=O)c2ccc(F)cc21 [Lorlatinib, (10R)-7-amino-12-fluoro-2,10,16-trimethyl-15-oxo-10,15,16,17-tetrahydro-2H-8,4-(metheno)pyrazolo[4,3-h][2,5,11]-benzoxadiazacyclotetradecine-3-carbonitrile]
[1]; pH 2.55
  solubility: 32.4 mg/mL (≈ 79.7 mM)
[1]; pH 8.02
  solubility: 0.17 mg/mL (≈ 0.418 mM)
[2]; 50 mg IV dose and 100 mg single oral dose, healthy participants
  Tolerability: generally well-tolerated
[2]; 50 mg IV, n = 11
  Number of TEAEs (treatment-emergent adverse events): 8
  Number of TRAEs (treatment-related adverse events): 6
  Number of participants who reported AEs: 4
  Participants with AEs: Abdominal discomfort, all causality: 0
  Participants with AEs: Contusion, TRAE: 0
  Participants with AEs: Contusion, all causality: 1
  Participants with AEs: Dizziness, TRAE: 1 (1)
  Participants with AEs: Dizziness, all causality: 1 (1)
  Participants with AEs: Dysuria, all causality: 0
  Participants with AEs: Eye disorders, all causality: 0
  Participants with AEs: Gastrointestinal disorders, all causality: 0
  Participants with AEs: General disorders and administration side conditions, all causality: 0
  Participants with AEs: Headache, TRAE: 2 (2)
  Participants with AEs: Headache, all causality: 2 (2)
  Participants with AEs: Injury, poisoning and procedural complications, TRAE: 0
  Participants with AEs: Injury, poisoning and procedural complications, all causality: 1
  Participants with AEs: Investigations, TRAE: 1 (1)
  Participants with AEs: Investigations, all causality: 1 (1)
  Participants with AEs: Mental impairment, all causality: 0
  Participants with AEs: Nausea, all causality: 0
  Participants with AEs: Nervous system disorders, TRAE: 2 (2)
  Participants with AEs: Nervous system disorders, all causality: 2 (2)
  Participants with AEs: Nervousness, TRAE: 0
  Participants with AEs: Nervousness, all causality: 1
  Participants with AEs: Paraesthesia, TRAE: 1 (1)
  Participants with AEs: Paraesthesia, all causality: 1 (1)
  Participants with AEs: Photophobia, all causality: 0
  Participants with AEs: Psychiatric disorders, TRAE: 0
  Participants with AEs: Psychiatric disorders, all causality: 1
  Participants with AEs: Renal and urinary disorders, all causality: 0
  Participants with AEs: Somnolence, all causality: 0
  Participants with AEs: Transaminase increased, TRAE: 1 (1)
  Participants with AEs: Transaminase increased, all causality: 1 (1)
  Participants with AEs: Visual field defect, TRAE: 1 (1)
  Participants with AEs: Visual field defect, all causality: 1 (1)
[2]; 100 mg oral and 50 mg IV, 11 healthy participants
  Deaths, serious AEs, severe AEs, discontinuations or dose reductions due to AEs: No deaths, serious adverse events (AEs), or severe AEs were reported; also recorded: No deaths, serious AEs, severe AEs, permanent discontinuations, temporary discontinuations, or dose reductions due to AEs were reported
[2]; 100 mg oral tablets, n = 11
  Number of TEAEs (treatment-emergent adverse events): 12
  Number of TRAEs (treatment-related adverse events): 9
  Participants with AEs: Abdominal discomfort, TRAE: 0
  Participants with AEs: Abdominal discomfort, all causality: 1
  Participants with AEs: Contusion, all causality: 0
  Participants with AEs: Dizziness, TRAE: 1 (1)
  Participants with AEs: Dizziness, all causality: 1 (1)
  Participants with AEs: Dysuria, TRAE: 1 (1)
  Participants with AEs: Dysuria, all causality: 1 (1)
  Participants with AEs: Eye disorders, TRAE: 1 (1)
  Participants with AEs: Eye disorders, all causality: 1 (1)
  Participants with AEs: Gastrointestinal disorders, TRAE: 0
  Participants with AEs: Gastrointestinal disorders, all causality: 2
  Participants with AEs: General disorders and administration side conditions, TRAE: 0
  Participants with AEs: General disorders and administration side conditions, all causality: 1
  Participants with AEs: Headache, TRAE: 2 (2)
  Participants with AEs: Headache, all causality: 2 (2)
  Participants with AEs: Injury, poisoning and procedural complications, all causality: 0
  Participants with AEs: Investigations, TRAE: 1 (1)
  Participants with AEs: Investigations, all causality: 1 (1)
  Participants with AEs: Mental impairment, TRAE: 1 (1)
  Participants with AEs: Mental impairment, all causality: 1 (1)
  Participants with AEs: Nausea, TRAE: 0
  Participants with AEs: Nausea, all causality: 1
  Participants with AEs: Nervous system disorders, TRAE: 3 (3)
  Participants with AEs: Nervous system disorders, all causality: 3 (3)
  Participants with AEs: Nervousness, all causality: 0
  Participants with AEs: Paraesthesia, TRAE: 1 (1)
  Participants with AEs: Paraesthesia, all causality: 1 (1)
  Participants with AEs: Photophobia, TRAE: 1 (1)
  Participants with AEs: Photophobia, all causality: 1 (1)
  Participants with AEs: Psychiatric disorders, all causality: 0
  Participants with AEs: Renal and urinary disorders, TRAE: 1 (1)
  Participants with AEs: Renal and urinary disorders, all causality: 1 (1)
  Participants with AEs: Somnolence, TRAE: 1 (1)
  Participants with AEs: Somnolence, all causality: 1 (1)
  Participants with AEs: Transaminase increased, TRAE: 1 (1)
  Participants with AEs: Transaminase increased, all causality: 1 (1)
  Participants with AEs: Visual field defect, all causality: 0
[2]; 100 mg oral, n = 11
  Number of participants who reported AEs: 4
[3]; co-administered with rifampicin
  AUCinf reduction: 85%
[3]; lorlatinib alone, rifampin study
  Mean half-life: 29 h
[3]; with the inducer rifampin
  Mean half-life: 18 h
[4]; after a 100 mg single oral dose
  Oral apparent clearance (CL/F), mean (CV%): 11 L/h
[4]; at steady-state
  Oral apparent clearance (CL/F), mean (CV%): 18 L/h
[4]
  Plasma terminal half-life (t½), mean (CV%): approximately 24 h
[5]
  Permeability: highly permeable
[6]
  Potential to cause hemolysis: did not indicate any potential to cause hemolysis
[7]
  Absolute bioavailability: approximately 100%
[8]; [14]
  Unchanged lorlatinib recovered in faeces: ~ 9%
  Unchanged lorlatinib recovered in urine: < 1%
[8]; first of two values
  Total drug-related radioactivity (parent plus metabolites) recovered in urine: 48%
[8]; second of two values
  Total drug-related radioactivity (parent plus metabolites) recovered in urine: 28%
[9]
  AUCinf reduction: 23%
[10]
  Blood-to-plasma partitioning ratio: 0.985
[11]
  Local vascular tissue irritation: did not indicate any local vascular tissue irritation
[12]
  Absolute bioavailability: ~97%
[13]; co-administered with itraconazole
  AUCinf increase: 42%
[13]; lorlatinib alone, itraconazole study
  Mean half-life: 23 h
[13]; with the inhibitor itraconazole
  Mean half-life: 30 h
